Data published in patent publication US12576109B2, “Allogeneic human plasma and platelet derived products and uses thereof” (Consano Bio, Inc., priority 2024, dated 2026).

B1: PDGF-BB: PDGF-BB in cell media, positive control of the scratch assay (protein, UniProt P01127 82-190, looked up)
Platelet-derived growth …: SLGSLTIAEPAMIAECKTRTEVFEISRRLIDRTNANFLVWPPCVEVQRCSGCCNNRNVQCRPTQVQLRPVQVRKIEIVRKKPIFKKATVTLEDHLACKCETVAAARPVT

How the values were obtained:
THP-1 cells = assay: LPS-induced inflammation in THP-1 cells (MSD V-PLEX cytokines), Example 25; type: cell-based, human; details: Candesartan 1 μg/mL; 500 ng LPS; 24 hours
Description: A composition comprising […] was prepared as described in Example 23 and sterile filtered, referred to as Composition […]. 300,000 THP-1 cells were plated per well. Control wells included media only. Cells were contacted with LPS and test articles as outlined in Tables 20 and 21. For a positive control, cells were administered 1.0 μg/mL Candesartan. Candesartan is a […] and known to reduce the production of cytokines. Specifically, candesartan is an angiotensin receptor subtype 1 inhibitor and was utilized as a positive control. The cells were incubated for 1 hour. The cells were incubated, and samples of the supernatant were collected at 4 hours and 24 hours. The remaining cells were collected and analyzed for total cell count and percent viability. The Meso Scale Discovery (MSD; Rockville, […]) V-PLEX kit (4-PLEX) with IL-1b, IL-6, IL-8, and TNF-α were used to analyze the cytokines in the media at 4 and 24 hours after LPS stimulation.

[1] = tested on: normal human dermal fibroblasts (NHDF) cells; assay: Scratch assay (in vitro wound closure); type: cell-based; details: 3.7 ng/mL PDGF-BB, positive control
Description: The test articles are outlined in Table 30 below. Briefly, AHPPDP was prepared based on the methods disclosed herein.
3,000 normal human dermal fibroblasts (NHDF) cells were plated per well. […] Vehicle at 9% concentration was the negative control.
The output measures of the scratch assay were, total number of nuclei per well, sum of cell area per well, and sum of empty area per well.

Molecule	IL1-beta (THP-1 cells) [pg/mL]	IL-6 (THP-1 cells) [pg/mL]	IL-8 (THP-1 cells) [pg/mL]	TNF-alpha (THP-1 cells) [pg/mL]	wound healing [1]
CCOc1nc2cccc(C(=O)O)c2n1Cc1ccc(-c2ccccc2-c2nnn[nH]2)cc1 [Candesartan]	0	0	1.44	0	–
B1	–	–	–	–	Wound healing compared to vehicle condition was obtained
